From paper PMC9271048, “Probing strigolactone perception mechanisms with rationally designed small-molecule agonists stimulating germination of root parasitic weeds” (Nature Communications, 2022)

Test system: P. aegyptiaca seeds
Experiment: P. aegyptiaca seed germination assay
Assay type: in vivo, Phelipanche aegyptiaca
Set-up: P. aegyptiaca seed germination activity, source data average: unit of the concentration uncertain
Conditions: 0.1 (unit uncertain) as printed; Supplementary Fig. 9b
Summary of the method: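 Germination scored at ×20 magnification after one week dark incubation at 25 °C with compound (acetone stock diluted 999/1 in water). Seeds were NaClO-sterilized and conditioned 4 days at 25 °C in the dark beforehand; 1‰ acetone negative, rac-GR24 positive control; triplicate biological repeats.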

| Structure (SMILES) | P. aegyptiaca seed germination activity, source data average |
| --- | --- |
| CC1=CC(OC(=O)N2CCN(C(=O)COc3ccc(Br)cc3C)CC2)CC1=O (stereo not drawn) [4g] | 11.4951% |

Same assay, conditions: 1 (unit uncertain) as printed; Supplementary Fig. 9b

| Structure (SMILES) | P. aegyptiaca seed germination activity, source data average |
| --- | --- |
| CC1=CC(OC(=O)N2CCN(C(=O)COc3ccc(Br)cc3C)CC2)CC1=O (stereo not drawn) [4g] | 63.9751% |

Same assay, conditions: 10 (unit uncertain) as printed; Supplementary Fig. 9b

| Structure (SMILES) | P. aegyptiaca seed germination activity, source data average |
| --- | --- |
| CC1=CC(OC(=O)N2CCN(C(=O)COc3ccc(Br)cc3C)CC2)CC1=O (stereo not drawn) [4g] | 69.9023% |

Test system: not listed separately
Experiment: Chemical reactivity analysis (HPLC, methanol/PBS pH 7.4)
Assay type: physicochemical
Conditions: 1:3 methanol and PBS (10 mM) pH 7.4
Description: Chemical reactivity is an important factor in the bioactivity of natural and synthetic SLs.
One hundred twenty microliters of sample solution was added to a solution of PBS (10 mM, pH 7.4, 810 μL) and methanol (270 μL). The solution was stirred vigorously for 30 s and then transferred to HPLC vial, and the vial was stored at 26 ± 1 °C. […] The analytical column was Extend-C18 (4.6 mm × 150 mm × 5 μm). The mobile phases were CH3CN and H2O (containing 0.1% HCO2H), VCH3CN:VH2O = 50:50, with a flow rate of 1 mL/min, and an injection volume of 5 μL. The percentage of remaining compounds in the solution was calculated from the peak area. The half-life times (t1/2) of samples were calculated.

| Structure (SMILES) | reactivity in methanol/PBS |
| --- | --- |
| CC1=CC(OC(=O)N2CCN(C(=O)COc3ccc(Br)cc3C)CC2)CC1=O (stereo not drawn) [4g] | no apparent hydrolysis was observed in 6 days |

Same assay, conditions: methanol/phosphate-buffered saline mixture; Supplementary Fig. 10 source data; methanol/PBS pH 7.4, 26 °C; read-out: half-life time (t1/2), source data average (converted)

| Structure (SMILES) | half-life at 0.5 mM |
| --- | --- |
| CC1=CC(OC(=O)N2CCN(C(=O)COc3ccc(Br)cc3C)CC2)CC1=O (stereo not drawn) [4g] | > 144 h |

Target: ShHTL7 (Striga hermonthica, UniProt A0A0M3PNA2)
Experiment: ShHTL7-hydrolysis reaction analysis (HPLC)
Assay type: biochemical
Conditions: 10 μM compound, 30 °C, 30 min; Supplementary Figs. 11, 20a, 24a
Summary of the method: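 Compounds at 10 μM were incubated with 10 μg recombinant ShHTL7 or its mutants in PBS (pH 7.3) at 30 °C for 30 min, then quenched with methanol. The remaining compound was quantified by HPLC, and hydrolysis was expressed relative to a protein-free buffer control (n = 3).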

Chain of ShHTL7 (A0A0M3PNA2 entry or part of it): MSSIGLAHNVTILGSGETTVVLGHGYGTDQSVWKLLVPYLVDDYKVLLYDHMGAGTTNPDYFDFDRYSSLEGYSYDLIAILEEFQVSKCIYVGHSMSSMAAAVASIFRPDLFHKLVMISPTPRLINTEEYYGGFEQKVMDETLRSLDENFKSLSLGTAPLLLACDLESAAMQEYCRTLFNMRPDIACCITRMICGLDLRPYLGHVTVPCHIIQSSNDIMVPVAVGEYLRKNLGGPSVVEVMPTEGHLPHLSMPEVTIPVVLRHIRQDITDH

| Structure (SMILES) | relative percentage of hydrolysis by ShHTL7, source data average |
| --- | --- |
| CC1=CC(OC(=O)N2CCN(C(=O)COc3ccc(Br)cc3C)CC2)CC1=O (stereo not drawn) [4g] | 10.7551% |

Test system: ShHTLs (10 HTL proteins in S. hermonthica)
Experiment: YLG-based competition assay on HTL proteins of S. hermonthica
Assay type: biochemical, Striga hermonthica
Conditions: ShHTL2; YLG competition; Supplementary Fig. 27; read-out: IC50, replicate 1
Description: In P. aegyptiaca, 5 KAI2s have been proposed as the SL receptors for the regulation of seed germination. […] The high sequence similarity may explain the consistency of these compounds in inducing germination in both S. hermonthica and P. aegyptiaca.
The excitation and emission wavelengths of YLG are 480 and 520 nm, respectively. We used a fluorescence spectrophotometer (CARY Eclipse) to detect the fluorescence intensity change of YLG during the enzymatic hydrolysis assay process. All the testing compounds and YLG were dissolved in DMSO and prepared as stock solutions just before use. […] The changes of fluorescence at 520 nm of each well were recorded every 1 min for 30 min. Using the reaction mixture without adding enzyme and tested compounds as the background control. After subtracting the background hydrolysis, a linear fluorescence increase in 8 min was used for further inspection. The IC50 values were determined via fitting relative inhibition percentages with the varying concentrations of compounds in Microsoft Excel.
Supplementary Fig. 27. Binding of compounds 4a, (R)- and (S)-4a, and 4g-i to the HTL proteins in S. hermonthica and KAI2 protein homologs in P. aegyptiaca. In the competitive inhibitory activity assay, YLG (3 µM) was used as the fluorogenic substrate. Error bar indicates SD (n = 3 biologically independent experiments).
(1 picture or pasted object on this page, not shown here)

| Structure (SMILES) | IC50 |
| --- | --- |
| CC1=CC(OC(=O)N2CCN(C(=O)COc3ccc(Br)cc3C)CC2)CC1=O (stereo not drawn) [4g] | 65.2 µM |

Same assay, conditions: ShHTL2; YLG competition; Supplementary Fig. 27; read-out: IC50, replicate 2

| Structure (SMILES) | IC50 |
| --- | --- |
| CC1=CC(OC(=O)N2CCN(C(=O)COc3ccc(Br)cc3C)CC2)CC1=O (stereo not drawn) [4g] | 66 µM |

Same assay, conditions: ShHTL2; YLG competition; Supplementary Fig. 27; read-out: IC50, replicate 3

| Structure (SMILES) | IC50 |
| --- | --- |
| CC1=CC(OC(=O)N2CCN(C(=O)COc3ccc(Br)cc3C)CC2)CC1=O (stereo not drawn) [4g] | 64.5 µM |

Same assay, conditions: ShHTL2; average of 3 replicates; Supplementary Fig. 27; read-out: IC50, average

| Structure (SMILES) | IC50 |
| --- | --- |
| CC1=CC(OC(=O)N2CCN(C(=O)COc3ccc(Br)cc3C)CC2)CC1=O (stereo not drawn) [4g] | 65.2 µM |

Same assay, conditions: ShHTL3; YLG competition; Supplementary Fig. 27; read-out: IC50, replicate 1

| Structure (SMILES) | IC50 |
| --- | --- |
| CC1=CC(OC(=O)N2CCN(C(=O)COc3ccc(Br)cc3C)CC2)CC1=O (stereo not drawn) [4g] | 40.5 µM |

Same assay, conditions: ShHTL3; YLG competition; Supplementary Fig. 27; read-out: IC50, replicate 2

| Structure (SMILES) | IC50 |
| --- | --- |
| CC1=CC(OC(=O)N2CCN(C(=O)COc3ccc(Br)cc3C)CC2)CC1=O (stereo not drawn) [4g] | 33.3 µM |

Same assay, conditions: ShHTL3; YLG competition; Supplementary Fig. 27; read-out: IC50, replicate 3

| Structure (SMILES) | IC50 |
| --- | --- |
| CC1=CC(OC(=O)N2CCN(C(=O)COc3ccc(Br)cc3C)CC2)CC1=O (stereo not drawn) [4g] | 28.5 µM |

Same assay, conditions: ShHTL3; average of 3 replicates; Supplementary Fig. 27; read-out: IC50, average

| Structure (SMILES) | IC50 |
| --- | --- |
| CC1=CC(OC(=O)N2CCN(C(=O)COc3ccc(Br)cc3C)CC2)CC1=O (stereo not drawn) [4g] | 34.1 µM |

Same assay, conditions: ShHTL4; YLG competition; Supplementary Fig. 27; read-out: IC50, replicate 1

| Structure (SMILES) | IC50 |
| --- | --- |
| CC1=CC(OC(=O)N2CCN(C(=O)COc3ccc(Br)cc3C)CC2)CC1=O (stereo not drawn) [4g] | 19.2 µM |

Same assay, conditions: ShHTL4; YLG competition; Supplementary Fig. 27; read-out: IC50, replicate 2

| Structure (SMILES) | IC50 |
| --- | --- |
| CC1=CC(OC(=O)N2CCN(C(=O)COc3ccc(Br)cc3C)CC2)CC1=O (stereo not drawn) [4g] | 17.8 µM |

Same assay, conditions: ShHTL4; YLG competition; Supplementary Fig. 27; read-out: IC50, replicate 3

| Structure (SMILES) | IC50 |
| --- | --- |
| CC1=CC(OC(=O)N2CCN(C(=O)COc3ccc(Br)cc3C)CC2)CC1=O (stereo not drawn) [4g] | 16.1 µM |

Same assay, conditions: ShHTL4; average of 3 replicates; Supplementary Fig. 27; read-out: IC50, average

| Structure (SMILES) | IC50 |
| --- | --- |
| CC1=CC(OC(=O)N2CCN(C(=O)COc3ccc(Br)cc3C)CC2)CC1=O (stereo not drawn) [4g] | 17.7 µM |

Same assay, conditions: ShHTL5; YLG competition; Supplementary Fig. 27; read-out: IC50, replicate 1

| Structure (SMILES) | IC50 |
| --- | --- |
| CC1=CC(OC(=O)N2CCN(C(=O)COc3ccc(Br)cc3C)CC2)CC1=O (stereo not drawn) [4g] | 40.1 µM |

Same assay, conditions: ShHTL5; YLG competition; Supplementary Fig. 27; read-out: IC50, replicate 2

| Structure (SMILES) | IC50 |
| --- | --- |
| CC1=CC(OC(=O)N2CCN(C(=O)COc3ccc(Br)cc3C)CC2)CC1=O (stereo not drawn) [4g] | 35.7 µM |

Same assay, conditions: ShHTL5; YLG competition; Supplementary Fig. 27; read-out: IC50, replicate 3

| Structure (SMILES) | IC50 |
| --- | --- |
| CC1=CC(OC(=O)N2CCN(C(=O)COc3ccc(Br)cc3C)CC2)CC1=O (stereo not drawn) [4g] | 41.8 µM |
